The results in this text go back to US20250092002A1, “FLUORINATED CATIONIC LIPIDS FOR USE IN LIPID NANOPARTICLES” (Acuitas Therapeutics, Inc., priority 2021, published 2025).

Where two headings read alike, the source gives them in different places. Marks after values point to notes of the source that are not given here.

For data set [1], the system named is luciferase expression in the liver. Nature of the data set: In vivo luciferase mRNA expression rodent model (liver luciferase after tail vein injection of mRNA-LNP). Further details: species or system mice. The settings on record: tail vein injection, liver 4 hours after administration; for Liver Luc (ng luc/g liver), determined at 0.3 mg/kg: 0.3 mg/kg (footnote *). Here is the method: Lipid nanoparticles were prepared and tested according to the general procedures described in PCT Pub. Nos. WO 2015/199952 and WO 2017/004143, the full disclosures of which are incorporated herein by reference. Briefly, cationic lipid, DSPC, cholesterol and PEG-lipid were solubilized in ethanol at a molar ratio of about 50:10:38.5:1.5 or about 47.5:10:40.7:1.8. Lipid nanoparticles (LNP) were prepared at a total lipid to mRNA weight ratio of approximately 10:1 to 40:1. The mRNA is diluted to 0.2 mg/mL in 10 to 50 mM citrate or acetate buffer, pH 4. Syringe pumps were used to mix the ethanolic lipid solution with the mRNA aqueous solution at a ratio of about 1:5 to 1:3 (vol/vol) with total flow rates above 15 mL/min. The ethanol was then removed and the external buffer replaced with PBS by dialysis. Finally, the lipid nanoparticles were filtered through a 0.2 µm pore sterile filter. Lipid nanoparticle particle size was approximately 55-95 nm diameter, and in some instances approximately 70-90 nm diameter as determined by quasi-elastic light scattering using a Malvern Zetasizer Nano ZS (Malvern, UK).
Studies were performed in 6-8 week old female C57BL/6 mice (Charles River) or 8-10 week old CD-1 (Harlan) mice (Charles River) according to guidelines established by an institutional animal care committee (ACC) and the Canadian Council on Animal Care (CCAC). Varying doses of mRNA-lipid nanoparticle were systemically administered by tail vein injection and animals euthanized at a specific time point (e.g., 4 hours) post-administration. Liver and spleen were collected in pre-weighed tubes, weights determined, immediately snap frozen in liquid nitrogen and stored at −80° C. until processing for analysis.
For liver, approximately 50 mg was dissected for analyses in a 2 mL FastPrep tubes (MP Biomedicals, Solon OH). ¼″ ceramic sphere (MP Biomedicals) is added to each tube and 500 μL of Glo Lysis Buffer—GLB (Promega, Madison WI) equilibrated to room temperature is added to liver tissue. Liver tissues were homogenized with the FastPrep24 instrument (MP Biomedicals) at 2×6.0 m/s for 15 seconds. Homogenate was incubated at room temperature for 5 minutes prior to a 1:4 dilution in GLB and assessed using SteadyGlo Luciferase assay system (Promega). Specifically, 50 μL of diluted tissue homogenate was reacted with 50 μL of SteadyGlo substrate, shaken for 10 seconds followed by 5 minute incubation and then quantitated using a CentroXS^3 LB 960 luminometer (Berthold Technologies, Germany). The amount of protein assayed was determined by using the BCA protein assay kit (Pierce, Rockford IL). Relative luminescence units (RLU) were then normalized to total μg protein assayed. To convert RLU to ng luciferase a standard curve was generated with QuantiLum Recombinant Luciferase (Promega).
The FLuc mRNA (L-6107 or L-7202) from Trilink Biotechnologies will express a luciferase protein, originally isolated from the firefly, Photimus pyralis. FLuc is commonly used in mammalian cell culture to measure both gene expression and cell viability. It emits bioluminescence in the presence of the substrate, luciferin. This capped and poly-adenylated mRNA was fully substituted with respect to uridine and/or cytidine nucleosides.
Representative compounds of the disclosure shown in Table 2 were formulated using the following molar ratio: 50% cationic lipid/10% distearoylphosphatidylcholine (DSPC)/38.5% Cholesterol/1.5% PEG lipid 2-[2-(ω-methoxy(polyethyleneglycol2000)ethoxy]-N,N-ditetradecylacetamide) or 47.5% cationic lipid/10% DSPC/40.7% Cholesterol/1.8% PEG lipid. Relative activity was determined by measuring luciferase expression in the liver 4 hours following administration via tail vein injection as described in Example 1. The activity was compared at a dose of 1.0 or 0.5 or 0.3 mg mRNA/kg and expressed as ng luciferase/g liver measured 4 hours after administration, as described in Example 1. Compound numbers in Table 2 refer to the compound numbers of Table 1. […]

A short description of data set [2]: Determination of pKa of formulated lipids (TNS fluorescence assay in lipid nanoparticles). It counts as physicochemical. The settings on record: cationic lipid formulated in lipid nanoparticles (cationic lipid/DSPC/cholesterol/PEG-lipid 47.5/10/40.7/1.8 mol %). The protocol:
As described elsewhere, the pKa of formulated cationic lipids is correlated with the effectiveness of LNPs for delivery of nucleic acids (see Jayaraman et al, Angewandte Chemie, International Edition (2012), 51(34), 8529-8533; Semple et al, Nature Biotechnology 28, 172-176 (2010)). The preferred range of pKa is ˜5 to ˜7. The pKa of each cationic lipid was determined in lipid nanoparticles using an assay based on fluorescence of 2-(p-toluidino)-6-napthalene sulfonic acid (TNS). Lipid nanoparticles comprising cationic lipid/DSPC/cholesterol/PEG-lipid (47.5/10/40.7/1.8 mol %) in PBS at a concentration of 0.4 mM total lipid were prepared using the in-line process as described in Example 1. TNS was prepared as a 100 μM stock solution in distilled water. Vesicles were diluted to 24 μM lipid in 2 mL of buffered solutions containing, 10 mM HEPES, 10 mM MES, 10 mM ammonium acetate, 130 mM NaCl, where the pH ranged from 2.5 to 11. An aliquot of the TNS solution was added to give a final concentration of 1 μM and following vortex mixing fluorescence intensity was measured at room temperature in a SLM Aminco Series 2 Luminescence Spectrophotometer using excitation and emission wavelengths of 321 nm and 445 nm. A sigmoidal best fit analysis was applied to the fluorescence data and the pKa was measured as the pH giving rise to half-maximal fluorescence intensity.

[3] abbreviates: probe 2-(p-toluidino)-6-napthalene sulfonic acid (TNS), 1 µM final, read-out: pKa.

As for `CCCCCCCC(F)C(=O)N(CCCN1CCCC1)C(CCCCCCCCC(=O)OCC(CCCC)CCCCCC)CCCCCCCCC(=O)OCC(CCCC)CCCCCC` (stereo not drawn) [Compound I-22, BIS(2-BUTYLOCTYL) 10-(2-FLUORO-N-(3-(PYRROLIDIN-1-YL)PROPYL)NONANAMIDO)NONADECANEDIOATE], in data set [1], the “Liver Luc (ng luc/g liver), determined at 0.3 mg/kg” value amounted to 10062 ± 2580 ng luc/g liver and the “Liver Luc (ng luc/g liver), determined at 1.0 mg/kg” value was 82847 ± 27713 ng luc/g liver. In addition, the pKa (as a rule, the negative logarithm of the acid dissociation constant) in data set [2] (setting [3]) came to 5.96.
For `CCCCCCCCC(CCCCCC)COC(=O)CCCCCC(CCCCCC(=O)OCC(CCCCCC)CCCCCCCC)N(CCCN(C)C)C(=O)CC(F)(F)F` (stereo not drawn) [Compound I-12, BIS(2-HEXYLDECYL) 7-(N-(3-(DIMETHYLAMINO)PROPYL)-3,3,3-TRIFLUOROPROPANAMIDO)TRIDECANEDIOATE] the same measures were 138 ± 64* ng luc/g liver, 559 ± 207 ng luc/g liver and 6.22.
Turning to `CCCCCCCC(=O)N(C(=O)CCCCN(C)C)C(CCCCCC(=O)OCC(CCCC)CCCCC)CCCCCC(=O)OCC(CCCC)CCCCCC` (stereo not drawn) [I-11 analogue, reference compound], in data set [1], the “Liver Luc (ng luc/g liver), determined at 0.3 mg/kg” value is 1626 ± 472 ng luc/g liver and the “Liver Luc (ng luc/g liver), determined at 1.0 mg/kg” value is 8102 ± 4319 ng luc/g liver. Besides, the pKa in data set [2] was determined as 7.04.
